As usually defined, the CC50 is the concentration giving 50% cytotoxicity. Read a high CC50 as lower toxicity to the cells. In general, EC50 refers to the concentration needed to bring the measured effect to its halfway point.

Results on 39 compounds are retold here after ChEMBL document CHEMBL1156829 (Proc Natl Acad Sci U S A, 2008).

Data set [1] can be described thus: NOVARTIS: Cytotoxicity against human hepatocellular carcinoma cell line (Huh7). It is filed as toxicity, cell-based, Huh-7. The note with it: Huh7 cells (hepatocellular carcinoma cell line).
Data set [2] has as its system Plasmodium falciparum. Briefly: NOVARTIS: Inhibition of Plasmodium falciparum 3D7 (drug-susceptible) proliferation in erythrocyte-based infection assay. The note with it: Plasmodium falciparum, 3D7. In kind it is functional, organism-based.
Data set [3] relates to Plasmodium falciparum. Briefly: NOVARTIS: Inhibition of Plasmodium falciparum W2 (drug-resistant) proliferation in erythrocyte-based infection assay. It is filed as functional, organism-based. The note with it: Plasmodium falciparum, W2; read-out: EC50.

Turning to `C=C[C@H]1CN2CC[C@H]1C[C@@H]2[C@@H](OC(C)=O)c1ccnc2ccccc12`, in data set [1], the CC50 is greater than 10000 nM. The concentration giving a half-maximal response (EC50) is 666 nM in the data set on Plasmodium falciparum [2] and 157 nM in the data set with Plasmodium falciparum [3].

With `O=C(Nc1ccc(C(F)(F)F)cc1)c1ccc(NCCCN2CCCCCC2)c([N+](=O)[O-])c1`, in data set [1], the CC50 came to 21200 nM. The EC50 with Plasmodium falciparum [2] stood at 120 nM; with Plasmodium falciparum [3], 328 nM.

As to `CC(Oc1ccc(Cl)cc1Cl)c1nc(-c2ccc(NC(=O)c3ccco3)cc2)no1` (configuration not stated), half-maximal cytotoxicity in data set [1] (CC50) was put at 35600 nM. Further, the half-maximal effective concentration (EC50) came out at 313 nM in the data set on Plasmodium falciparum [2] and 551 nM in the data set with Plasmodium falciparum [3].

Regarding `O=C1c2cccc(N3CCCC(C(=O)N4CCCCC4c4cccnc4)C3)c2C(=O)N1Cc1ccc(C(F)(F)F)cc1` (configuration not stated), the CC50 in data set [1] was greater than 100000 nM. Moreover, the values for the EC50 in the data set on Plasmodium falciparum [2] and in the data set on Plasmodium falciparum [3] were 3410 nM and 1530 nM, respectively.

In data set [1], `Cc1ccc(C2CC3=Nc4ccccc4N(C(=O)C(F)(F)F)C(c4ccc(OCc5ccccc5)cc4)C3=C(O)C2)cc1` (configuration not stated) yielded a CC50 greater than 100000 nM. In addition, the values for the EC50 in the data set with Plasmodium falciparum [2] and in the data set with Plasmodium falciparum [3] were 1660 nM and 1560 nM, respectively.

In turn, `CN(CCCNc1ccnc2cc(Cl)ccc12)C(=O)CCc1ccccc1` showed a CC50 in data set [1] greater than 12100 nM. The EC50 in the data set with Plasmodium falciparum [2] amounted to 136 nM; in the data set with Plasmodium falciparum [3], 187 nM.

Turning to `Cc1nc2cc(-c3ccc(I)cc3)nn2c(O)c1C`, the CC50 in data set [1] is greater than 100000 nM. In addition, the results for the EC50 with Plasmodium falciparum [2] and in the data set with Plasmodium falciparum [3] were 4200 nM and 1540 nM, respectively.

The compound `CCCCC(=O)N(C)CCCNc1ccnc2cc(Cl)ccc12` came in with a CC50 in data set [1] greater than 10000 nM. The results for the EC50 in the data set on Plasmodium falciparum [2] and in the data set on Plasmodium falciparum [3] were 124 nM and 154 nM, respectively.

In data set [1], `CC1(C)C(=O)C2(CCCCC2)C(=O)OC1C=Cc1ccccc1` (configuration not stated) came in with a CC50 greater than 100000 nM. Moreover, the 50% effective concentration (EC50) in the data set with Plasmodium falciparum [2] is greater than 12500 nM; with Plasmodium falciparum [3], 1540 nM.

As for `O=C1CC(N2CCCCCC2)C(=O)N1c1ccc(N2C(=O)CC(N3CCCCCC3)C2=O)cc1` (configuration not stated), the CC50 in data set [1] was greater than 10000 nM. Further, the EC50 in the data set on Plasmodium falciparum [2] is greater than 1250 nM; in the data set on Plasmodium falciparum [3], greater than 155 nM.

As to `CCOC(=O)C1=C(c2ccccc2)N=c2sc(=Cc3cccnc3)c(=O)n2C1c1c(OC)ccc2ccccc12` (configuration not stated), in data set [1], the half-maximal cytotoxic concentration (CC50) is greater than 100000 nM. Also, the concentration giving a half-maximal response (EC50) stood at 4150 nM with Plasmodium falciparum [2] and 1550 nM in the data set with Plasmodium falciparum [3].

On to `COc1ccc(C2C(C(=O)OC3CCCC3)=C(C)NC3=C2C(=O)CC(C)(C)C3)cc1Br` (configuration not stated), for which, in data set [1], the CC50 is greater than 100000 nM. Also, the EC50 is 7000 nM with Plasmodium falciparum [2] and 1550 nM with Plasmodium falciparum [3].

`COc1cccc(CNC(=O)C2CNCC2c2ccc(C(F)(F)F)cc2)c1` (configuration not stated) gave a CC50 in data set [1] greater than 7220 nM. Further, the EC50 in the data set on Plasmodium falciparum [2] was found to be 395 nM; in the data set on Plasmodium falciparum [3], 111 nM.

`COc1ccc2c(C)nc(NC(=N)N)nc2c1` displayed a cytotoxic concentration (CC50) in data set [1] of 66400 nM. Further, the concentration for a half-maximal effect (EC50) in the data set with Plasmodium falciparum [2] came to 417 nM; in the data set with Plasmodium falciparum [3], 1020 nM.

In turn, `C/C(=C\c1csc(C)n1)[C@@H]1C[C@@H]2O[C@@H]2CCC[C@H](C)C(O)[C@@H](C)C(=O)C(C)(C)[C@@H](O)CC(=O)O1` (some centres not stated) came in with a CC50 in data set [1] greater than 10000 nM. The EC50 with Plasmodium falciparum [2] was 1030 nM; with Plasmodium falciparum [3] it was 156 nM.

On to `Cc1cc2c(cc1C)NC(c1ccc(Cl)c(F)c1)C1=C(CC(C)(C)CC1=O)N2` (configuration not stated), for which the midpoint of cytotoxicity in data set [1], the CC50, lay at 64500 nM. The EC50 in the data set on Plasmodium falciparum [2] was determined as 1070 nM; in the data set with Plasmodium falciparum [3], 1000 nM.

Consider `N=c1c2c(n(CCc3ccccc3)c3c1CCC3)CCCC2`, for which it took 15300 nM to reach half-maximal cytotoxicity in data set [1] (CC50). The EC50 in the data set with Plasmodium falciparum [2] stood at 58.7 nM; in the data set on Plasmodium falciparum [3], 234 nM.

`CN1CCC(CCNCc2ccc(OCC(O)CN(C)Cc3ccccc3)cc2)CC1` (configuration not stated) came in with a CC50 in data set [1] of 68600 nM. Moreover, the concentration giving a half-maximal response (EC50) was found to be 1110 nM in the data set with Plasmodium falciparum [2] and 1080 nM in the data set with Plasmodium falciparum [3].

For the compound `Cc1ccccc1OCCSc1nc2ccc(NC(=O)c3cccs3)cc2s1`, the CC50 in data set [1] was greater than 100000 nM. For the same compound, the figures for the concentration for a half-maximal effect (EC50) in the data set on Plasmodium falciparum [2] and in the data set on Plasmodium falciparum [3] were 497 nM and 1580 nM, respectively.

The compound `CC(C)c1ccc(NC(=O)C(Cc2cccs2)c2nnn[nH]2)cc1` (configuration not stated) yielded a cytotoxic concentration (CC50) in data set [1] greater than 100000 nM. Also, the EC50 in the data set with Plasmodium falciparum [2] turned out to be 11300 nM; with Plasmodium falciparum [3], 1570 nM.

`COc1cc(C=C(C#N)c2nc3ccccc3[nH]2)ccc1OCc1ccc(Cl)cc1`: the CC50 in data set [1] was greater than 100000 nM. The EC50 in the data set with Plasmodium falciparum [2] worked out at 763 nM; in the data set with Plasmodium falciparum [3], 1570 nM.

As for `Cc1ccc2c(C)nc(NC(=N)N)nc2c1`, the cytotoxic concentration (CC50) in data set [1] amounted to 48200 nM. Further, the EC50 in the data set on Plasmodium falciparum [2] was determined as 406 nM; in the data set on Plasmodium falciparum [3] it was 756 nM.

In the case of `CC(=O)N(C1=C(N2CCOCC2)C(=O)c2ccccc2C1=O)c1ccc(Cl)c(Cl)c1`, the half-maximal cytotoxic concentration (CC50) in data set [1] turned out to be 12200 nM. In addition, the EC50 in the data set on Plasmodium falciparum [2] came out at 220 nM; in the data set on Plasmodium falciparum [3] it was 191 nM.

In data set [1], `CCOC(=O)c1c(C)n(-c2ccccc2)c2ccc(OC(=O)c3ccccc3NC(=O)CC)cc12` came in with a CC50 greater than 100000 nM. The EC50 with Plasmodium falciparum [2] was 1060 nM; in the data set with Plasmodium falciparum [3], 1530 nM.

For the compound `Cn1nc(C(F)(F)F)c(-c2ccc(F)cc2)c1NC(=O)Nc1ccc(F)cc1F`, in data set [1], the midpoint of cytotoxicity, the CC50, lay at 29200 nM. Also, the EC50 in the data set with Plasmodium falciparum [2] was 291 nM; with Plasmodium falciparum [3], 448 nM.

`CC1=NOC(=O)C1=Cc1cccs1` showed a 50% cytotoxic concentration (CC50) in data set [1] of 49700 nM. The EC50 in the data set on Plasmodium falciparum [2] was greater than 8250 nM; in the data set on Plasmodium falciparum [3] it was 776 nM.

Turning to `CCCN(CCC)CCNC(=O)c1cc2c(-c3ccc(Cl)cc3)nn(C)c2s1`, in data set [1], the CC50 came to 45800 nM. For the same compound, the EC50 worked out at 253 nM with Plasmodium falciparum [2] and 703 nM in the data set on Plasmodium falciparum [3].

`CNC1=C(N(C(C)=O)c2ccc(Br)cc2)C(=O)c2ccccc2C1=O` registered a CC50 in data set [1] greater than 10000 nM. In addition, the EC50 came to 162 nM in the data set on Plasmodium falciparum [2] and 156 nM with Plasmodium falciparum [3].

Compound `CCCCCCc1ccc(C(=O)NCCCCNc2ccnc3cc(Cl)ccc23)cc1` had a CC50 in data set [1] greater than 10800 nM. The EC50 in the data set on Plasmodium falciparum [2] is 241 nM; with Plasmodium falciparum [3], 169 nM.

In data set [1], `CN(C)c1ccc(C=C2C(=O)NC(=O)N(Cc3ccccc3Cl)C2=O)cc1` yielded a CC50 greater than 100000 nM. Besides, the EC50 with Plasmodium falciparum [2] is greater than 12500 nM; in the data set on Plasmodium falciparum [3] it was 1550 nM.

`COc1ccc(C2=Nc3cc(C(=O)NCCN4CCOCC4)ccc3CN2C(C)C)cc1` displayed a CC50 in data set [1] greater than 100000 nM. Also, the results for the EC50 in the data set on Plasmodium falciparum [2] and in the data set on Plasmodium falciparum [3] were 5270 nM and 1530 nM, respectively.

In data set [1], `Cc1cc(C)cc(NC2=C(c3ccccc3)C(=O)c3ccccc32)c1` gave a CC50 greater than 100000 nM. For the same compound, the EC50 in the data set with Plasmodium falciparum [2] amounted to 1830 nM; in the data set on Plasmodium falciparum [3], 1530 nM.

`Cc1cc(C)c(C(Nc2ccccn2)c2ccc3cccnc3c2O)c(C)c1` (configuration not stated): the CC50 in data set [1] is greater than 67900 nM. In addition, the EC50 amounted to 3180 nM in the data set with Plasmodium falciparum [2] and 1070 nM with Plasmodium falciparum [3].

Consider `CC(OC(=O)c1ccccc1N1C(=O)C2C3C=CC(C4CC34)C2C1=O)C(=O)c1ccccc1` (configuration not stated), for which the CC50 in data set [1] is greater than 100000 nM. Besides, the EC50 worked out at 961 nM in the data set on Plasmodium falciparum [2] and 1570 nM in the data set on Plasmodium falciparum [3].

`O=c1oc(-c2ccccc2F)nc2sc3c(c12)CCCC3`: in data set [1], the CC50 is greater than 100000 nM. The values for the EC50 in the data set with Plasmodium falciparum [2] and with Plasmodium falciparum [3] were greater than 12500 nM and 1570 nM, respectively.

For the compound `CC1(C)C2CCC1(C)C(OCC[N+]1(Cc3ccccc3)CCCC1)C2` (configuration not stated), in data set [1], half-maximal cytotoxicity (CC50) was put at 12700 nM. Besides, the EC50 with Plasmodium falciparum [2] worked out at 161 nM; in the data set on Plasmodium falciparum [3] it was 195 nM.

Compound `COc1cc(CNc2ccc(N3CCCCC3)cc2)cc(Cl)c1OCc1ccc(F)cc1` showed a CC50 in data set [1] greater than 100000 nM. For the same compound, the EC50 in the data set with Plasmodium falciparum [2] was found to be 3040 nM; in the data set with Plasmodium falciparum [3], 1540 nM.

As for `Cc1ccc(NC(=O)c2sc3nc4c(c(-c5cccs5)c3c2N)CCCCC4)cc1`, the CC50 in data set [1] was greater than 100000 nM. The EC50 in the data set with Plasmodium falciparum [2] was determined as 5570 nM; in the data set on Plasmodium falciparum [3] it was 1560 nM.

`COC(=O)c1sc2nc(CN3CCCC(C)C3)ccc2c1NC(=O)c1ccc(C)s1` (configuration not stated) showed a half-maximal cytotoxic concentration (CC50) in data set [1] greater than 100000 nM. The results for the 50% effective concentration (EC50) with Plasmodium falciparum [2] and with Plasmodium falciparum [3] were 1810 nM and 1560 nM, respectively.
